In patent publication US4221907A, “Substituted O-α-D and O-β-D-multi-galactopyranosyl and glucopyranosyl 1→4 and 1→6 galactopyranosyl 1→6 α-D-glucopyranoses” (American Cyanamid Company, priority 1979, dated 1980):
Counter-ions that a name gives are not always drawn.

Legend:
[1] = test system: complement system; conditions: reported, British Journal of Experimental Pathology, 33, 327-339 (1952); cited from earlier work
[2] = test system: shunt pathway; test: Test Code 036 (C-Shunt inhibitor): lysis of human erythrocytes in autologous serum via shunt pathway activated by cobra venom factor; format: biochemical; conditions: activity in wells, twofold serial dilution; higher well number indicates higher activity
Description: (§1) An active inhibitor protects C2 from C1 and C4; (ii) Test Code 035 (C3-C9 inhibitor)--This test determines the ability of the late components of human complement (C3-C9) to lyse EAC 142 in the presence of appropriate dilutions of the test compound. An active inhibitor protects EAC 142 from lysis by human C3-C9; (iii) Test Code 036 (C-Shunt inhibitor)--In this test human erythrocytes rendered fragile are lysed in autologous serum via the shunt pathway activated by cobra venom factor in the presence of appropriate dilutions of the test compound. Inhibition of the shunt pathway results in failure of lysis; (iv) Forssman Vasculitis Test--Here, the well known complement dependent lesion, Forssman vasculitis, is produced in guinea pigs by intradermal injection of rabbit anti-Forssman antiserum. The lesion is measured in terms of diameter, edema and hemorrhage and the extent to which a combined index of these is inhibited by prior intraperitoneal injection of the test compound at 200 mg/kg is then reported, unless otherwise stated; (v) Forssman Shock Test--Lethal shock is produced in guinea pigs by an i.v. injection of anti-Forssman antiserum and the harmonic mean death time of treated guinea pigs is compared with that of the simultaneous controls; (vi) Complement Level Reduction Test--In this test, the above dosed guinea pigs, or others are bled for serum and the complmenet level is determined in undiluted serum by the capillary tube method of U.S. Pat. No. 3,876,376 and compared to undosed control guinea pigs; (vii) Cap 50 Test--Here, appropriate amounts of the test compound are added to a pool of guinea pig serum in vitro, after which the undiluted serum capillary tube assay referred to above is run. The concentration of compound inhibiting 50% is reported.
(§2) **Activity in wells, a serial dilution assay; higher well number indicate
(§3) higher activity. The serial dilutions are twofold-

[3] = biological target: human C1 (Homo sapiens, UniProt P09871); test: Test Code 026 (C1 inhibitor): activated human C1 destroys fluid phase human C2 in presence of C4; format: biochemical; conditions: activity in wells, twofold serial dilution; higher well number indicates higher activity
Chain of human C1 (P09871 16-688): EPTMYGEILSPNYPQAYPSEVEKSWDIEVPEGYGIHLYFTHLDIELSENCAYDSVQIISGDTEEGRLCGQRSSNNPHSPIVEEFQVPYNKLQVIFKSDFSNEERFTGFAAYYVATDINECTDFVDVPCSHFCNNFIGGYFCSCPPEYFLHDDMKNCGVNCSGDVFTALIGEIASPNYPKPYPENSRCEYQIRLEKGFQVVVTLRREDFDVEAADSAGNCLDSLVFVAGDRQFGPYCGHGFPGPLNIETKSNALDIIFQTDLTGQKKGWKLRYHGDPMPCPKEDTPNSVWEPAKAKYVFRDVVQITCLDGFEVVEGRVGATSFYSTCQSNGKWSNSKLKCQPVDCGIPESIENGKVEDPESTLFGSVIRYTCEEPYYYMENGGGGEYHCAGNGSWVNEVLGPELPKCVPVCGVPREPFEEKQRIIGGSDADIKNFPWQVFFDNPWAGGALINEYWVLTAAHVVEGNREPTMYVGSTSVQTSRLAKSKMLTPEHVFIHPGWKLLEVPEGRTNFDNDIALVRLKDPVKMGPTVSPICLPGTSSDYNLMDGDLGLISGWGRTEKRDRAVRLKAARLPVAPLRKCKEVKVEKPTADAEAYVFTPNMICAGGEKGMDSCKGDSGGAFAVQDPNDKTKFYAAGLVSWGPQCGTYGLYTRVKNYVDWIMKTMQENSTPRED
Chain of human C1 (P00736 18-705 partner): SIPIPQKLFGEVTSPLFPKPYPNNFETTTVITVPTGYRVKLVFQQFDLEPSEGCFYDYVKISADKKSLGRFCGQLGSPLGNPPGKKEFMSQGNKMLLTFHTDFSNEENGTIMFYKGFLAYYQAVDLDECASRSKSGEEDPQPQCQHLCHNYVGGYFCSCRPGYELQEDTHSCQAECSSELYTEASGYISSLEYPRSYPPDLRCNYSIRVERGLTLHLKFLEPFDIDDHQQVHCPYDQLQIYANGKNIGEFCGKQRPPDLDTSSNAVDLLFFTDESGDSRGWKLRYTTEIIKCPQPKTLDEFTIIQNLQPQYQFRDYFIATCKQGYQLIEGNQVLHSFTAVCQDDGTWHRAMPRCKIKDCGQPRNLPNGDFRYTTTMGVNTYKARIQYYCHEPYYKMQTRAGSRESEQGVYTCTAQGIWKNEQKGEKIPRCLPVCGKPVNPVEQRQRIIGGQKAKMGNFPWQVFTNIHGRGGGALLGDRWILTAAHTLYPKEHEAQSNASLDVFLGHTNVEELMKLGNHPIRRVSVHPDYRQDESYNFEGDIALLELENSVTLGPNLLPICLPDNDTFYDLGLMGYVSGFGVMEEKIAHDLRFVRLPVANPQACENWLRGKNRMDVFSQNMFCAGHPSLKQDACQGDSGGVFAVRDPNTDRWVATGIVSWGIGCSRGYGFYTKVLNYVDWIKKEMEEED
Chain of human C1 (P02745 23-245 partner): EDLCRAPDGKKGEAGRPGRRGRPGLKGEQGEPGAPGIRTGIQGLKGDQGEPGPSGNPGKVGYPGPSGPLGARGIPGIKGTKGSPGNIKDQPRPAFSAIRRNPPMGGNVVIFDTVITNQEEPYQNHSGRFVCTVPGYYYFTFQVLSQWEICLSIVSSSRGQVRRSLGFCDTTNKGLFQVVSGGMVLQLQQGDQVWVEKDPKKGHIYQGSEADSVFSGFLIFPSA
Chain of human C1 (P02746 28-253 partner): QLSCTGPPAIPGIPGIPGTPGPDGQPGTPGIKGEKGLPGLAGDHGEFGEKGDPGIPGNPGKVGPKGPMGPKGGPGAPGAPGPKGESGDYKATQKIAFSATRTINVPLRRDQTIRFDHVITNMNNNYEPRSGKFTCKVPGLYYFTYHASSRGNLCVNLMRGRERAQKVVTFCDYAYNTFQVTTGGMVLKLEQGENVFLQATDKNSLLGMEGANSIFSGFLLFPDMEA
Chain of human C1 (P02747 29-245 partner): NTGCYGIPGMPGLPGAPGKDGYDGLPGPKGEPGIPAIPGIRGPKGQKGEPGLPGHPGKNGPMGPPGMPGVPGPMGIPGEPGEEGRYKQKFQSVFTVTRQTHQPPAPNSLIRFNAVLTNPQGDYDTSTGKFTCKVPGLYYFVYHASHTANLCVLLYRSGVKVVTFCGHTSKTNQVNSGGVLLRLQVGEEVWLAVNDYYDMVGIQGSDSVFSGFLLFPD
Description: as §1, §2, §3

[4] = test system: human complement (C3-C9); test: Test Code 035 (C3-C9 inhibitor): lysis of EAC 142 by late components of human complement; format: biochemical; conditions: activity in wells, twofold serial dilution; higher well number indicates higher activity
Description: as §1, §2, §3

[5] = test system: whole complement; test: In vivo activity (Guinea Pig): serum whole complement by capillary tube assay after dosing; conditions: Intraperitoneal, 200 mg/kg
[6] = test system: hereditary angio-neurotic edema; conditions: reported in the literature; cited from earlier work
[7] = test system: total hemolytic complement activity; conditions: in vitro and in vivo, as judged by reduction in total hemolytic complement activity; cited from earlier work

For `Nc1ccc2cc(S(=O)(=O)[O-])cc(O)c2c1N=Nc1ccc(NC(=O)Nc2ccc(N=Nc3c(N)ccc4cc(S(=O)(=O)[O-])cc(O)c34)c(S(=O)(=O)[O-])c2)cc1S(=O)(=O)[O-].[Na+].[Na+].[Na+].[Na+]` [chlorazol fast pink, 3,3'-ureylenebis[6-(2-amino-8-hydroxy-6-sulfo-1-naphthylazo)benzenesulfonic acid], tetrasodium salt], the anticomplementary effect [1] is listed as “anticomplementary effect”.
With `O=S(=O)(O)OC[C@H]1O[C@H](OC[C@H]2O[C@@H](OC[C@H]3O[C@H](OC[C@H]4O[C@H](OS(=O)(=O)O)[C@H](OS(=O)(=O)O)[C@@H](OS(=O)(=O)O)[C@@H]4OS(=O)(=O)O)[C@H](OS(=O)(=O)O)[C@@H](OS(=O)(=O)O)[C@H]3OS(=O)(=O)O)[C@H](OS(=O)(=O)O)[C@@H](OS(=O)(=O)O)[C@@H]2OS(=O)(=O)O)[C@H](OS(=O)(=O)O)[C@@H](OS(=O)(=O)O)[C@H]1OS(=O)(=O)O` [drawing 9, O-α-D-galactopyranosyl(1→6)-O-β-D-glucopyranosyl(1→6)-O-α-D-galactopyranosyl(1→6)-α-D-glucopyranose [gal 1α,6 glc 1β,6 gal 1α,6 glc] tetradecakis (H-sulfate), tetradecasodium salt] the “Shunt Inhibition 036 Wells” value [2] was “+6 Wells”, the “C1 026 Wells” value [3] was “+9 Wells” and the “C-Late 035 Wells” value [4] was “+1 Wells”. The “In vivo Activity (Guinea Pig) % Inhibition” value ([5]; 30 min) was -44%, the “In vivo Activity (Guinea Pig) % Inhibition” value ([5]; 60 min) was -55% and the “In vivo Activity (Guinea Pig) % Inhibition” value ([5]; 120 min) was -80%.
With `O=S(=O)(O)OC[C@H]1O[C@@H](OC[C@H]2O[C@H](OC[C@H]3OC(OS(=O)(=O)O)[C@H](OS(=O)(=O)O)[C@@H](OS(=O)(=O)O)[C@@H]3OS(=O)(=O)O)[C@H](OS(=O)(=O)O)[C@@H](OS(=O)(=O)O)[C@H]2OS(=O)(=O)O)[C@H](OS(=O)(=O)O)[C@@H](OS(=O)(=O)O)[C@@H]1O[C@H]1O[C@H](COS(=O)(=O)O)[C@@H](OS(=O)(=O)O)[C@H](OS(=O)(=O)O)[C@H]1OS(=O)(=O)O` (stereo partly drawn) [drawing 11, O-α-D-glucopyranosyl(1→4)-O-β-D-glucopyranosyl(1→6)-O-α-D-galactopyranosyl(1→6)-D-glucopyranose [glc 1α,4 glc 1β,6 gal 1α,6 glc] tetradecakis (H-sulfate), tetradecasodium salt] the “Shunt Inhibition 036 Wells” value [2] was “+6 Wells”, the “C1 026 Wells” value [3] was “+10 Wells” and the “C-Late 035 Wells” value [4] was “+1 Wells”. For the same molecule, the “In vivo Activity (Guinea Pig) % Inhibition” value ([5]; 30 min) was -54%, the “In vivo Activity (Guinea Pig) % Inhibition” value ([5]; 60 min) was -45% and the “In vivo Activity (Guinea Pig) % Inhibition” value ([5]; 120 min) was -39%.
For `O=S(=O)(O)OC[C@H]1O[C@@H](OC[C@H]2O[C@H](OC[C@H]3OC(OS(=O)(=O)O)[C@H](OS(=O)(=O)O)[C@@H](OS(=O)(=O)O)[C@@H]3OS(=O)(=O)O)[C@H](OS(=O)(=O)O)[C@@H](OS(=O)(=O)O)[C@H]2OS(=O)(=O)O)[C@H](OS(=O)(=O)O)[C@@H](OS(=O)(=O)O)[C@@H]1O[C@H]1O[C@H](COS(=O)(=O)O)[C@@H](O[C@H]2O[C@H](COS(=O)(=O)O)[C@@H](O[C@H]3O[C@H](COS(=O)(=O)O)[C@@H](O[C@H]4O[C@H](COS(=O)(=O)O)[C@@H](O[C@H]5O[C@H](COS(=O)(=O)O)[C@@H](O[C@H]6O[C@H](COS(=O)(=O)O)[C@@H](OS(=O)(=O)O)[C@H](OS(=O)(=O)O)[C@H]6OS(=O)(=O)O)[C@H](OS(=O)(=O)O)[C@H]5OS(=O)(=O)O)[C@H](OS(=O)(=O)O)[C@H]4OS(=O)(=O)O)[C@H](OS(=O)(=O)O)[C@H]3OS(=O)(=O)O)[C@H](OS(=O)(=O)O)[C@H]2OS(=O)(=O)O)[C@H](OS(=O)(=O)O)[C@H]1OS(=O)(=O)O` (stereo partly drawn) [drawing 16, O-α-D-glucopyranosyl(1→4)-O-α-D-glucopyranosyl(1→4)-O-α-D-glucopyranosyl(1→4)-O-α-D-glucopyranosyl(1→4)-O-α-D-glucopyranosyl(1→4)-O-α-D-glucopyranosyl(1→4)-O-β-D-glucopyranosyl(1→6)-O-α-D-galactopyranosyl(1→6)-D-glucopyranose [(glc 1α,4)6 glc 1β,6 gal 1α,6 glc] nonacosakis (H-sulfate), non-acosasalt with trimethylamine], the “Shunt Inhibition 036 Wells” value [2] was “+5 Wells”, the “C1 026 Wells” value [3] was “+10 Wells” and the “C-Late 035 Wells” value [4] was “+1 Wells”.
For `O=S(=O)(O)OC[C@H]1O[C@@H](OC[C@H]2O[C@H](OC[C@H]3OC(OS(=O)(=O)O)[C@H](OS(=O)(=O)O)[C@@H](OS(=O)(=O)O)[C@@H]3OS(=O)(=O)O)[C@H](OS(=O)(=O)O)[C@@H](OS(=O)(=O)O)[C@H]2OS(=O)(=O)O)[C@H](OS(=O)(=O)O)[C@@H](OS(=O)(=O)O)[C@@H]1O[C@H]1O[C@H](COS(=O)(=O)O)[C@@H](O[C@H]2O[C@H](COS(=O)(=O)O)[C@@H](O[C@H]3O[C@H](COS(=O)(=O)O)[C@@H](O[C@H]4O[C@H](COS(=O)(=O)O)[C@@H](O[C@H]5O[C@H](COS(=O)(=O)O)[C@@H](O[C@H]6O[C@H](COS(=O)(=O)O)[C@@H](OS(=O)(=O)O)[C@H](OS(=O)(=O)O)[C@H]6OS(=O)(=O)O)[C@H](OS(=O)(=O)O)[C@H]5OS(=O)(=O)O)[C@H](OS(=O)(=O)O)[C@H]4OS(=O)(=O)O)[C@H](OS(=O)(=O)O)[C@H]3OS(=O)(=O)O)[C@H](OS(=O)(=O)O)[C@H]2OS(=O)(=O)O)[C@H](OS(=O)(=O)O)[C@H]1OS(=O)(=O)O` (stereo partly drawn) [drawing 17, O-α-D-glucopyranosyl(1→4)-O-α-D-glucopyranosyl(1→4)-O-α-D-glucopyranosyl(1→4)-O-α-D-glucopyranosyl(1→4)-O-α-D-glucopyranosyl(1→4)-O-α-D-glucopyranosyl(1→4)-O-β-D-glucopyranosyl(1→6)-O-α-D-galactopyranosyl(1→6)-D-glucopyranose [(glc 1α,4)6 glc 1β,6 gal 1α,6 glc] nonacosakis (H-sulfate), non-acosasodium salt], the “Shunt Inhibition 036 Wells” value [2] was “+5 Wells”, the “C1 026 Wells” value [3] was “+9 Wells” and the “C-Late 035 Wells” value [4] was “+3 Wells”.
For `NCCCCCC(=O)O` [epsilon-aminocaproic acid], the “treatment of hereditary angio-neurotic edema” value [6] is given as “used with success”.
For `NC[C@H]1CC[C@H](C(=O)O)CC1` [tranexamic acid], the “treatment of hereditary angio-neurotic edema” value [6] is given as “used with success”.
In the case of heparin, the anticomplementary effect [1] is given as “anticomplementary effect”.
In the case of pentosan-polysulfoester, the “anticomplementary activity on human serum” value [7] is given as “anticomplementary activity on human serum, both in vitro and in vivo”.
